Measured values reported in US20150065416A1, “NOVEL DRUG COMBINATION” (FAB PHARMA SAS, priority 2013, published 2015).
Values after ≈ are worked out from the molar mass of the structure shown. Read-outs that look alike come from different tables or passages of the source.

Assays:
A. baumannii SAN-94040 = experiment: Mouse model of A. baumannii pneumonia, Study 2: bacterial counts in blood and tissues; type: in vivo, Acinetobacter baumannii
Experimental: The bacterial inoculum was prepared in order to obtain a suspension containing 10^8 CFU/mL of Acinetobacter baumannii in saline.
Experimentations were performed with six-week old female C3H/HeN mice (18-20 g, Breeding Centre JANVIER (Ile saint Genest Mayenne 53)) because of their particular susceptibility to Acinetobacter baumannii and the reproducibility of the results (inbreeding in the breed). Each mouse was individually marked and housed in cages containing five animals/cage under ventilated and controlled (temperature and humidity) atmosphere.
The mice were rendered transiently neutropenic by 2 intra-peritoneal (IP) injections of 150 μL of cyclophosphamide (Endoxan® 150 mg/kg) 4 (D-4) and 3 (D-3) days before the Acinetobacter baumannii inoculation (Day 0). This transient immunosuppression was sufficient to facilitate the development of the A. baumannii pneumonia while allowing the recovery of the neutrophil influx 2 (Day 2) days after inoculation in order to avoid or limit a systemic bacterial dissemination.
Mice were anesthetized by a mixture of oxygen and isoflurane. The bacterial inoculation was performed on Day 0 by intra-tracheal installation using an endotracheal catheter (50 μl of the suspension, thus 5.106 CFU). The positioning of the catheter in the trachea (instead of in the oesophagus) was checked by a “ring test”. The bacterial count in lungs was checked for all study groups by sacrificing one mouse immediately after inoculation.
Sample time points: T0 (pre-inoculation), T24h (post inoculation), T48h and T72h.
Blood samples preparation: At each time point, three mice were sacrificed per group by cervical dislocation.
Tissue samples preparation: At each time point, three mice were sacrificed per group. Lungs, kidneys, liver and spleen were collected after the blood sampling and cervical dislocation. Tissues were wiped with a sterile gauze to remove blood contaminant outside. Tissues were then be weighed, finely ground and plated on agar for quantitative culture. Cultures were incubated at 37° C. for 18 to 24 hours.
The aim of this experiment was to assess the bacterial counts in blood, lungs, spleen, liver and kidneys of transiently neutropenic female C3H/HeN mice administered, 3 hours post-inoculation of A. baumannii SAN-94040 via intra-tracheal route, with compound (I) via intra-peritoneal route at 200 mg/kg 3 times daily (every 8 hours) for 1 day alone and in combination with meropenem at 50 mg/kg 3 times daily (every 8 hours) for 1 day or with amikacin at 18 mg/kg 3 times daily (every 8 hours) for 1 day.
All results concerning bacterial counts were expressed from Day 0 (inoculation) to 72 hours post-inoculation (Day 3). Bacterial counts on Day 3 were carried out only on surviving mice and results were more objectionable for interpretation. On Day 0, only bacterial count in lung of control mice was performed. Bacterial cell counts were determined as set out in the General Procedures.

A. baumannii isolates = experiment: Individual antimicrobial susceptibility testing (MIC, broth microdilution, CLSI); type: cell-based, Acinetobacter baumannii
Experimental: In the antimicrobial susceptibility testing 77 isolates of A. baumannii (from 2010) in the following sub-groups were tested: • 22 isolates generally susceptible to antimicrobial agents (“Sus”) • 20 carbapenem-resistant isolates (e.g. “MPM-R”) • 20 aminoglycoside-resistant isolates (e.g. “AMK-R”) • 15 colistin-resistant isolates. (e.g. “COL-R”)
Minimum inhibitory concentration (MIC) endpoints were determined by broth microdilution according to CLSI guidelines (CLSI, M7-A8 & M100-S22, 2012). Panels were prepared at IHMA using cation-adjusted Mueller-Hinton broth. Colonies were taken directly from a second-pass culture plate and prepared to a suspension equivalent of the 0.5 McFarland standard using normal saline.
Testing was carried out as described in the General Procedures to determine minimum inhibitory concentration (MIC) end points for compound (I), amikacin, colistin, gentamicin, meropenem and tobramycin, for 77 A. baumannii isolates. Under the “MIC (μg/ml)” heading, the first column (Range) indicates the MIC end points for the particular number (N) of isolates tested, the second column (50%) provides an estimate of the concentration that inhibits 50% (MIC50) of bacterial isolates tested, and the third column (90%) provides an estimate of the concentration that inhibits 90% of the bacterial isolates tested.

A. baumannii SAN strain = experiment: Bactericidal activity (time kill kinetics, Example 5); type: cell-based, Acinetobacter baumannii; conditions: alone at 2×MIC
Experimental: In addition, a second set of experiments involved the testing of compound(I)/additional antibacterial agent combinations of 2×/2×MIC. Samples were taken at 0, 3, 6 and 24 hours in order to determine colony forming units (CFU/mL).

[1] = test system: A. baumannii CIP 5377, CIP 7034, AYE, SAN, RCH; experiment: Antimicrobial susceptibility testing (MIC, broth microdilution, EUCAST; Example 5); type: cell-based, Acinetobacter baumannii; conditions: Acinetobacter baumannii
Source text: A. baumannii CIP 5377 (ATCC® 17978): low cephalosporinase producing strain, susceptible to meropenem and amikacin, isolated in an infected patient
A. baumannii CIP 7034: low cephalosporinase producing strain, susceptible to meropenem and amikacin A. baumannii AYE ATCC® BAA1710™: extended spectrum beta-lactamase producing strain susceptible to meropenem and resistant to amikacin
A. baumannii SAN-94040 (SAN): cephalosporinase-overproducing strain, susceptible to meropenem and intermediate to amikacin and resistant to fluoroquinolones, isolated from blood cultures of an intensive care patient with nosocomial pneumonia from North Africa (Algeria).
A. baumannii RCH-69: cephalosporinase producing strain; low susceptibility to imipenem and resistant to amikacin.

[2] = Study 2, 24 h, compound (I) 200 mg/kg Q8h, amikacin 18 mg/kg, meropenem 50 mg/kg Q8h I.P. for 1 day
[3] = Acinetobacter baumannii, All isolates, N=77
[4] = Acinetobacter baumannii, Amikacin-resistant isolates, N=20
[5] = Acinetobacter baumannii, Colistin-resistant isolates, N=15
[6] = Acinetobacter baumannii, Meropenem-resistant isolates, N=20
[7] = Acinetobacter baumannii, Susceptible isolates, N=22
[8] = A. baumannii AYE, read-out: MIC
[9] = A. baumannii CIP 5377, read-out: MIC
[10] = A. baumannii CIP 7034, read-out: MIC
[11] = A. baumannii RCH, read-out: MIC
[12] = A. baumannii SAN, read-out: MIC
[13] = Amikacin-resistant isolates, N=20

`NCC[C@H](O)C(=O)N[C@@H]1C[C@H](N)[C@@H](O[C@H]2O[C@H](CN)[C@@H](O)[C@H](O)[C@H]2O)[C@H](O)[C@H]1O[C@H]1O[C@H](CO)[C@@H](O)[C@H](N)[C@H]1O` [amikacin] was tested, and the lung bacterial counts (A. baumannii SAN-94040; [2]) was 1.33E+09 CFU/g Lung, the lung bacterial counts (A. baumannii SAN-94040; Study 2, 48 h) was 4.41E+08 CFU/g Lung and the MIC50 (A. baumannii isolates; [3]) was 8 µg/mL (≈ 13.7 µM). For the same compound, the MIC90 (A. baumannii isolates; [3]) was > 128 µg/mL, the MIC50 (A. baumannii isolates; [4]) was > 128 µg/mL and the MIC90 (A. baumannii isolates; [4]) was > 128 µg/mL. The MIC50 (A. baumannii isolates; [5]) was 64 µg/mL (≈ 109 µM), the MIC90 (A. baumannii isolates; [5]) was > 128 µg/mL and the MIC50 (A. baumannii isolates; [6]) was 8 µg/mL (≈ 13.7 µM). The MIC90 (A. baumannii isolates; [6]) was 128 µg/mL (≈ 219 µM), the MIC50 (A. baumannii isolates; [7]) was 4 µg/mL (≈ 6.83 µM) and the MIC90 (A. baumannii isolates; [7]) was 8 µg/mL (≈ 13.7 µM). The “MIC Range” value (A. baumannii isolates; Susceptible isolates, N=22) was 0.25 to 8 µg/mL, the “effect in time-kill study when tested alone” value (“effect in time-kill study” for short) (A. baumannii SAN strain) was “bactericidal” and the MIC [1, 8] was 32 µg/mL (≈ 54.6 µM). For the same compound, the MIC [1, 9] was 2 µg/mL (≈ 3.42 µM), the MIC [1, 10] was 8 µg/mL (≈ 13.7 µM) and the MIC [1, 11] was > 32 µg/mL. For the same compound, the MIC [1, 12] was 4 µg/mL (≈ 6.83 µM).

For `CCc1cc(O)c(Oc2ccc(C(N)=O)cc2F)cc1F` [compound (I), 4-(4-ethyl-5-fluoro-2-hydroxyphenoxy)-3-fluorobenzamide], the lung bacterial counts (A. baumannii SAN-94040; [2]) was 4.72E+09 CFU/g Lung, the lung bacterial counts (A. baumannii SAN-94040; Study 2, 48 h) was 3.75E+05 CFU/g Lung and the “range of the majority of MICs” value (A. baumannii isolates; 77 isolates) was 2 to 8 µg/mL. The MIC50 (A. baumannii isolates; [3]) was 4 µg/mL (≈ 13.6 µM), the MIC90 (A. baumannii isolates; [3]) was 8 µg/mL (≈ 27.3 µM) and the MIC50 (A. baumannii isolates; [4]) was 4 µg/mL (≈ 13.6 µM). The MIC90 (A. baumannii isolates; [4]) was 8 µg/mL (≈ 27.3 µM), the MIC50 (A. baumannii isolates; [5]) was 4 µg/mL (≈ 13.6 µM) and the MIC90 (A. baumannii isolates; [5]) was > 32 µg/mL. The MIC50 (A. baumannii isolates; [6]) was 8 µg/mL (≈ 27.3 µM), the MIC90 (A. baumannii isolates; [6]) was 8 µg/mL (≈ 27.3 µM) and the MIC50 (A. baumannii isolates; [7]) was 4 µg/mL (≈ 13.6 µM). The MIC90 (A. baumannii isolates; [7]) was 8 µg/mL (≈ 27.3 µM), the MIC (A. baumannii isolates; Acinetobacter baumannii, 77 isolates, FIG. 1 and 2, read-out: mode MIC) was 4 µg/mL (≈ 13.6 µM) and the “MIC Range” value (A. baumannii isolates; [13]) was 2 to 8 µg/mL. The “MIC Range” value (A. baumannii isolates; Susceptible isolates, N=22) was 0.5 to 8 µg/mL, the MICs ranging (A. baumannii isolates; amikacin-R isolates) was 2 to 8 µg/mL and the MICs ranging (A. baumannii isolates; susceptible isolates) was 0.5 to 8 µg/mL. For the same compound, the “effect in time-kill study” value (A. baumannii SAN strain) was “bacteriostatic”, the MIC ([1]; 5 isolates of A. baumannii, read-out: MICs ranging) was 1 to 2 µg/mL (≈ 3.41 to 6.82 µM) and the MIC [1, 8] was 2 µg/mL (≈ 6.82 µM). For the same compound, the MIC [1, 9] was 2 µg/mL (≈ 6.82 µM), the MIC [1, 10] was 1 µg/mL (≈ 3.41 µM) and the MIC [1, 11] was 2 µg/mL (≈ 6.82 µM). The MIC [1, 12] was 2 µg/mL (≈ 6.82 µM).

`C[C@@H](O)[C@H]1C(=O)N2C(C(=O)O)=C(S[C@@H]3CN[C@H](C(=O)N(C)C)C3)[C@H](C)[C@H]12` [meropenem] was tested, and the blood bacterial counts (A. baumannii SAN-94040; Study 2, 24 h) was 0 CFU/mL Blood, the lung bacterial counts (A. baumannii SAN-94040; [2]) was 3.75E+04 CFU/g Lung and the blood bacterial counts (A. baumannii SAN-94040; Study 2, 48 h) was 0 CFU/mL Blood. The kidney bacterial counts (A. baumannii SAN-94040; Study 2, 48 h) was 0 CFU/g Kidneys, the liver bacterial counts (A. baumannii SAN-94040; Study 2, 48 h) was 0 CFU/g Liver and the lung bacterial counts (A. baumannii SAN-94040; Study 2, 48 h) was 5.56E+06 CFU/g Lung. For the same compound, the blood bacterial counts (A. baumannii SAN-94040; Study 2, 72 h) was 0 CFU/mL Blood, the kidney bacterial counts (A. baumannii SAN-94040; Study 2, 72 h) was 0 CFU/g Kidneys and the liver bacterial counts (A. baumannii SAN-94040; Study 2, 72 h) was 0 CFU/g Liver. For the same compound, the spleen bacterial counts (A. baumannii SAN-94040; Study 2, 72 h) was 0 CFU/g Spleen, the lung bacterial counts (A. baumannii SAN-94040; Study 2, 72 h, surviving mice only) was 1.00E+00 CFU/g Lung and the MIC50 (A. baumannii isolates; [3]) was 4 µg/mL (≈ 10.4 µM). The MIC90 (A. baumannii isolates; [3]) was > 32 µg/mL, the MIC50 (A. baumannii isolates; [4]) was 2 µg/mL (≈ 5.22 µM) and the MIC90 (A. baumannii isolates; [4]) was 16 µg/mL (≈ 41.7 µM). For the same compound, the MIC50 (A. baumannii isolates; [5]) was 32 µg/mL (≈ 83.4 µM), the MIC90 (A. baumannii isolates; [5]) was > 32 µg/mL and the MIC50 (A. baumannii isolates; [6]) was > 32 µg/mL. The MIC90 (A. baumannii isolates; [6]) was > 32 µg/mL, the MIC50 (A. baumannii isolates; [7]) was 0.25 µg/mL (≈ 0.652 µM) and the MIC90 (A. baumannii isolates; [7]) was 2 µg/mL (≈ 5.22 µM). For the same compound, the “MIC Range” value (A. baumannii isolates; [13]) was 0.5 to 32 µg/mL, the “MIC Range” value (A. baumannii isolates; Susceptible isolates, N=22) was 0.06 to 4 µg/mL and the “effect in time-kill study” value (A. baumannii SAN strain) was “bactericidal”. The MIC [1, 8] was 1 µg/mL (≈ 2.61 µM), the MIC [1, 9] was 0.25 µg/mL (≈ 0.652 µM) and the MIC [1, 10] was 1 µg/mL (≈ 2.61 µM). For the same compound, the MIC [1, 11] was 32 µg/mL (≈ 83.4 µM) and the MIC [1, 12] was 1 µg/mL (≈ 2.61 µM).
